Test results from publication PMC9804387, “Substrate Peptidomimetic Inhibitors of P. falciparum Plasmepsin X with Potent Antimalarial Activity” (Chemmedchem, 2022).
pEC50, pIC50: −log10 of the molar value.

Columns and labels:
[1] = test system: SERA5 processing by SUB1, indicative of upstream activity by PMX; experiment: SERA5 processing inhibition assay in parasites (western blot, anti-SERA5); format: cell-based, P. falciparum; conditions: WM382 (1) at 2.5 nM
From the text: PMX and PMIX ligand cleavage in P. falciparum parasites. It was next determined whether 38 could inhibit PMX and PMIX processing of known invasion and egress ligands in P. falciparum parasites. […] SERA5 is not a direct substrate of PMX, but is processed by SUB1 which itself is activated by PMX. The degree of downstream processing of SERA5 by SUB1 is indicative of PMX activity.
(§1) In this experiment, synchronized late trophozoite/early schizont stage parasites, expressing HA‐tagged ASP, were incubated with 38 (10 μM), the positive control WM382 (1) (2.5 nM) (a dual potent inhibitor of PMIX and PMX) and the DMSO vehicle control. Parasites from each treatment condition were then lysed and the processing of the known PMX and PMIX substrates were detected by western blot as a corollary of protease activity.
P. falciparum ASP and SERA5 Processing Inhibition Assay. P. falciparum substrate processing inhibition assays were performed as previously described.[28] Synchronized ring stage cultures were treated with test compounds 38 (10 μM) and WM382 (2.5 nM)[28] or DMSO as a vehicle control. […] HA‐tagged apical sushi protein (ASP) was detected in the merozoite fraction with anti‐HA mAb and SERA5 was detected in the supernatant fraction with an anti‐SERA5 polyclonal Ab. […]

[2] = test system: PMIX processing of the ASP protein; experiment: ASP processing inhibition assay in parasites (western blot, anti-HA); format: cell-based, P. falciparum; conditions: WM382 (1) at 2.5 nM, HA‐tagged ASP parasites
Procedure: as §1
P. falciparum ASP and SERA5 Processing Inhibition Assay. P. falciparum substrate processing inhibition assays were performed as previously described.[28] Synchronized ring stage cultures were treated with test compounds 38 (10 μM) and WM382 (2.5 nM)[28] or DMSO as a vehicle control. The parasite cultures were grown to the schizont stage before passing over LD magnetic columns (Miltenyi Biotech) to remove uninfected erythrocytes. Parasites were eluted from columns with RPMI 1640 (in‐house) culture medium to which the appropriate inhibitor at the same concentration had been added. Eluted parasites were adjusted to 5×10^6 schizonts/mL and 150 μL added per well of a 96‐well flat‐bottomed culture plate. […] HA‐tagged apical sushi protein (ASP) was detected in the merozoite fraction with anti‐HA mAb and SERA5 was detected in the supernatant fraction with an anti‐SERA5 polyclonal Ab. […]

Pf 3D7 = test system: Pf 3D7; design: method as in PMID 29074775, PMID 32109369, PMID 23260352, PMID 29519896; conditions: Figure 1, described in literature; cited from earlier work
PMIX = test system: PMIX; design: method as in PMID 29074775, PMID 32109369, PMID 23260352, PMID 29519896; conditions: Figure 1, described in literature; cited from earlier work
PMX = conditions: Figure 1, described in literature; cited from earlier work

In the case of `CCC1(CC)CC(=O)N([C@@H]2CCOc3ccc(C(=O)N[C@H]4CC(C)(C)Oc5ccccc54)cc32)C(=N)N1` [WM382], the “SERA5 processing (western blot)” value [1] is given as “complete inhibition of SERA5 processing”, the “ASP processing by PMIX (western blot)” value [2] is given as “inhibition of ASP processing” and the pEC50 (Pf 3D7) is given as 9.22. The pIC50 (PMIX) was 9.40 and the pIC50 (PMX) was 10.40.
